Consider 13 compounds from PMC9272937, “Anti-breast cancer sinomenine derivatives via mechanisms of apoptosis induction and metastasis reduction” (Journal of Enzyme Inhibition and Medicinal Chemistry, 2022).

Where two headings read alike, the source gives them in different places.

Usually IC50 stands for the concentration that gives 50% inhibition.

The subject of test [1] is human lung cancer cell line A549. The test is described as follows: CCK-8 antiproliferative assay, A549. It counts as cell-based. Particulars: CCK-8, 48 h, mean ± SD of three experiments. As to the method: (§1) The antiproliferative activities of target compounds were examined by CCK-8 assay in three cancer cells (human lung cancer cell line A549, human mammary gland tumour cell line MCF-7 and human TNBC cell line MDA-MB-231) and one normal cell (human normal breast cell line MCF10A). All cell lines were sourced from KeyGEN Biotech, […], China, and a standard DMEM medium was applied to all cell cultures then subjected to 24 h incubation at 37 °C in a humidified environment with 5% CO2. After that logarithmic growing cells were plated on 96-well plates with 8,000 cells per well in a […] medium for 24 h incubation at 37 °C with 5% CO2. The DMEM medium with bovine serum was removed from each well. Then, prerequisite target compounds and positive controls were added to different cell lines in a predetermined concentration regiment for 48 h culture.
Background: Tetrazolium dyes change colour on reduction, which living cells bring about.

The test system of test [2] is human mammary gland tumour cell line MCF-7. The test is described as follows: CCK-8 antiproliferative assay, MCF-7. The test is classed as cell-based. Conditions: for IC50: Homo sapiens, read-out: IC50 MCF-7; for SI MCF-7 (selectivity index): SI = IC50(MCF-10A)/IC50(MCF-7). As to the method:
as §1

Test [3] deals with human TNBC cell line MDA-MB-231. The test is described as follows: CCK-8 antiproliferative assay, MDA-MB-231. It counts as cell-based. Conditions: for IC50: Homo sapiens, read-out: IC50 MDA-MB-231; for SI MDA-MB-231 (selectivity index): SI = IC50(MCF-10A)/IC50(MDA-MB-231). As to the method: as §1
For test [4], the system named is human normal breast cell line MCF10A. The test is described as follows: CCK-8 assay, normal cells MCF10A. The test is classed as cell-based. Conditions: MCF-10A, CCK-8, 48 h, mean ± SD of three experiments. As to the method:
as §1

The nature of test [5]: Griess assay, NO-releasing capacity. Particulars: 10^−4 mol/l compound, L-cysteine, 37 °C; for NO peak releasing: 15-180 min. As to the method:
The NO-releasing capacity of each target compound was determined by the colorimetric method under the instructions of the manufacturer. Preparation of standard curves of 0, 1.56, 3.13, 6.25, 12.5, 25, 50 and 100 μmol/L nitrite nitrogen series standard solution was prepared. 50 μL to 96-well plate was added respectively and then mixed with 50 μL Griess I and Griess II; the absorption value was measured at 540 nm wavelength. A standard curve was drawn from the obtained data. Compounds were formulated into 10^−4 mol/l with PBS (pH = 7.4) and pharmaceutical DMSO. The newly formulated L-cysteine solution 100 μL ([…]) was added and incubated at 37 °C for 15, 30, 45, 60, 90, 120, 150 and180 min, respectively. Griess I and II recovered to room temperature, 50 μL of compounds 7A–E(a–c) were added respectively into the 96-well plate, and then 50 μL of Griess I and 50 μL of Griess II were added in sequence, with the absorbance tested at 540 nm. The amount of NO released was then calculated according to the standard curve.
In general terms: Nitrite, measured by Griess reagent, commonly stands in for NO production.

For `COC1=CC2[C@H]3Cc4ccc(OC)c(OC(=O)CCC(=O)OCCOc5no[n+]([O-])c5S(=O)(=O)c5ccccc5)c4[C@@]2(CCN3C)CC1=O` (stereo partly drawn) [7Aa, 4–(2-((4-(((4bs,9R)-3,7-Dimethoxy-11-methyl-6-oxo-6,8a,9,10-tetrahydro-5H-9,4b-(epiminoethano)phenanthren-4-yl)oxy)-4-oxobutanoyl)oxy)ethoxy)-3-(phenylsulfonyl)-1,2,5-oxadiazole 2-oxide], the IC50 in test [1] (Homo sapiens, A549) was 15.2 ± 1.37 µM; in test [2] (MCF7, 48 h) it was 26.4 ± 1.25 µM; in test [3] (MDA-MB-231, 48 h), 31.5 ± 2.77 µM; in test [4] it was over 50 µM. In addition, the “SI MCF-7 (selectivity index)” value in test [2] is over 1.89. In addition, in test [3], the “SI MDA-MB-231 (selectivity index)” value is over 1.58. The NO peak releasing result in test [5] is given as “exceeding 40 μmol/L”.
Regarding `COC1=CC2[C@H]3Cc4ccc(OC)c(OC(=O)CCCC(=O)OCCOc5no[n+]([O-])c5S(=O)(=O)c5ccccc5)c4[C@@]2(CCN3C)CC1=O` (stereo partly drawn) [7Ab, 4–(2-((5-(((4bs,9R)-3,7-Dimethoxy-11-methyl-6-oxo-6,8a,9,10-tetrahydro-5H-9,4b-(epiminoethano)phenanthren-4-yl)oxy)-5-oxopentanoyl)oxy)ethoxy)-3-(phenylsulfonyl)-1,2,5-oxadiazole 2-oxide], the IC50 in test [1] (Homo sapiens, A549) is 9.41 ± 0.68 µM; in test [2] (MCF7, 48 h), 15.3 ± 0.94 µM; in test [3] (MDA-MB-231, 48 h), 29.6 ± 1.8 µM; in test [4] it was over 50 µM. For the same compound, the “SI MCF-7 (selectivity index)” value in test [2] is listed as over 3.27. The “SI MDA-MB-231 (selectivity index)” value in test [3] is on record as over 1.69.
Consider `COC1=CC2[C@H]3Cc4ccc(OC)c(OC(=O)c5ccccc5C(=O)OCCOc5no[n+]([O-])c5S(=O)(=O)c5ccccc5)c4[C@@]2(CCN3C)CC1=O` (stereo partly drawn) [7Ac, 4–(2-((2-((((4bs,9R)-3,7-Dimethoxy-11-methyl-6-oxo-6,8a,9,10-tetrahydro-5H-9,4b-(epiminoethano)phenanthren-4-yl)oxy)carbonyl)benzoyl)oxy)ethoxy)-3-(phenylsulfonyl)-1,2,5-oxadiazole 2-oxide], for which the 50% inhibitory concentration (IC50) in test [1] (Homo sapiens, A549) turned out to be 2.33 ± 0.15 µM; in test [2] (MCF7, 48 h), 5.87 ± 0.42 µM; in test [3] (MDA-MB-231, 48 h), 1.62 ± 0.15 µM; in test [4], 21.5 ± 0.88 µM. For the same compound, the “SI MCF-7 (selectivity index)” value in test [2] is 3.67. Besides, the “SI MDA-MB-231 (selectivity index)” value in test [3] amounted to 13.30. In test [5], the NO peak releasing result is reported as “exceeding 40 μmol/L”.
In the case of `COC1=CC2C3Cc4ccc(OC)c(OC(=O)CCC(=O)OCCCOc5no[n+]([O-])c5S(=O)(=O)c5ccccc5)c4C2(CCN3C)CC1=O` (stereo not drawn) [7Ba], the IC50 was 9.84 ± 0.47 µM in test [1] (Homo sapiens, A549); 19 ± 1.33 µM in test [2] (MCF7, 48 h); 24.2 ± 1.97 µM in test [3] (MDA-MB-231, 48 h); over 50 µM in test [4]. Further, in test [2], the “SI MCF-7 (selectivity index)” value is over 2.64. For the same compound, the “SI MDA-MB-231 (selectivity index)” value in test [3] was over 2.06. Further, the “NO release at 180 min” value in test [5] (180 min) came to 68.4 µmol/L.
Take `COC1=CC2[C@H]3Cc4ccc(OC)c(OC(=O)CCCC(=O)OCCCOc5no[n+]([O-])c5S(=O)(=O)c5ccccc5)c4[C@@]2(CCN3C)CC1=O` (stereo partly drawn) [7Bb, 4–(3-((5-(((4bs,9R)-3,7-Dimethoxy-11-methyl-6-oxo-6,8a,9,10-tetrahydro-5H-9,4b-(epiminoethano)phenanthren-4-yl)oxy)-5-oxopentanoyl)oxy)propoxy)-3-(phenylsulfonyl)-1,2,5-oxadiazole 2-oxide]: the IC50 in test [1] (Homo sapiens, A549) is 4.91 ± 0.3 µM; in test [2] (MCF7, 48 h), 19.7 ± 1.28 µM; in test [3] (MDA-MB-231, 48 h) it was 16.4 ± 1.55 µM; in test [4], over 50 µM. Also, the “SI MCF-7 (selectivity index)” value in test [2] is on record as over 2.54. The “SI MDA-MB-231 (selectivity index)” value in test [3] is over 3.04.
For `COC1=CC2[C@H]3Cc4ccc(OC)c(OC(=O)c5ccccc5C(=O)OCCCOc5no[n+]([O-])c5S(=O)(=O)c5ccccc5)c4[C@@]2(CCN3C)CC1=O` (stereo partly drawn) [7Bc, 4–(3-((2-((((4bs,9R)-3,7-Dimethoxy-11-methyl-6-oxo-6,8a,9,10-tetrahydro-5H-9,4b-(epiminoethano)phenanthren-4-yl)oxy)carbonyl)benzoyl)oxy)propoxy)-3-(phenylsulfonyl)-1,2,5-oxadiazole 2-oxide], the IC50 in test [1] (Homo sapiens, A549) was 5.05 ± 0.21 µM; in test [2] (MCF7, 48 h), 12.2 ± 0.92 µM; in test [3] (MDA-MB-231, 48 h), 18.7 ± 0.61 µM; in test [4] it was over 50 µM. For the same compound, in test [2], the “SI MCF-7 (selectivity index)” value is over 4.11. The “SI MDA-MB-231 (selectivity index)” value in test [3] is over 2.67.
With `COC1=CC2[C@H]3Cc4ccc(OC)c(OC(=O)CCCC(=O)OCCCCOc5no[n+]([O-])c5S(=O)(=O)c5ccccc5)c4[C@@]2(CCN3C)CC1=O` (stereo partly drawn) [7Cb, 4–(4-((5-(((4bs,9R)-3,7-Dimethoxy-11-methyl-6-oxo-6,8a,9,10-tetrahydro-5H-9,4b-(epiminoethano)phenanthren-4-yl)oxy)-5-oxopentanoyl)oxy)butoxy)-3-(phenylsulfonyl)-1,2,5-oxadiazole 2-oxide], the concentration for half-maximal inhibition (IC50) in test [1] (Homo sapiens, A549) amounted to 3.53 ± 0.29 µM; in test [2] (MCF7, 48 h), 4.68 ± 0.39 µM; in test [3] (MDA-MB-231, 48 h) it was 1.47 ± 0.14 µM; in test [4], 36.7 ± 1.02 µM. In addition, the “SI MCF-7 (selectivity index)” value in test [2] is on record as 7.84. In addition, the “SI MDA-MB-231 (selectivity index)” value in test [3] is listed as 24.97.
As to `COC1=CC2[C@H]3Cc4ccc(OC)c(OC(=O)CCCC(=O)OCCCCCOc5no[n+]([O-])c5S(=O)(=O)c5ccccc5)c4[C@@]2(CCN3C)CC1=O` (stereo partly drawn) [7Db, 4-((5-((5-(((4bs,9R)-3,7-Dimethoxy-11-methyl-6-oxo-6,8a,9,10-tetrahydro-5H-9,4b-(epiminoethano)phenanthren-4-yl)oxy)-5-oxopentanoyl)oxy)pentyl)oxy)-3-(phenylsulfonyl)-1,2,5-oxadiazole 2-oxide], the IC50 was determined as 3.92 ± 0.31 µM in test [1] (Homo sapiens, A549); 2.94 ± 0.27 µM in test [2] (MCF7, 48 h); 3.11 ± 0.22 µM in test [3] (MDA-MB-231, 48 h); 39.5 ± 2.9 µM in test [4]. The “SI MCF-7 (selectivity index)” value in test [2] was 13.43. The “SI MDA-MB-231 (selectivity index)” value in test [3] was determined as 12.69.
Consider `COC1=CC2[C@H]3Cc4ccc(OC)c(OC(=O)CCC(=O)OCCCCCCOc5no[n+]([O-])c5S(=O)(=O)c5ccccc5)c4[C@@]2(CCN3C)CC1=O` (stereo partly drawn) [7Ea, 4-((6-((4-(((4bs,9R)-3,7-Dimethoxy-11-methyl-6-oxo-6,8a,9,10-tetrahydro-5H-9,4b-(epiminoethano)phenanthren-4-yl)oxy)-4-oxobutanoyl)oxy)hexyl)oxy)-3-(phenylsulfonyl)-1,2,5-oxadiazole 2-oxide], for which the IC50 in test [1] (Homo sapiens, A549) is 4.62 ± 0.16 µM; in test [2] (MCF7, 48 h), 25.3 ± 0.9 µM; in test [3] (MDA-MB-231, 48 h), 19 ± 0.7 µM; in test [4], 43.6 ± 2.65 µM. Also, the “SI MCF-7 (selectivity index)” value in test [2] turned out to be 2.79. Besides, the “SI MDA-MB-231 (selectivity index)” value in test [3] is on record as 2.30.
As to `COC1=CC2[C@H]3Cc4ccc(OC)c(OC(=O)CCCC(=O)OCCCCCCOc5no[n+]([O-])c5S(=O)(=O)c5ccccc5)c4[C@@]2(CCN3C)CC1=O` (stereo partly drawn) [7Eb, 4-((6-((5-(((4bs,9R)-3,7-Dimethoxy-11-methyl-6-oxo-6,8a,9,10-tetrahydro-5H-9,4b-(epiminoethano)phenanthren-4-yl)oxy)-5-oxopentanoyl)oxy)hexyl)oxy)-3-(phenylsulfonyl)-1,2,5-oxadiazole 2-oxide], the IC50 in test [1] (Homo sapiens, A549) is 4.55 ± 0.43 µM; in test [2] (MCF7, 48 h) it was 17.9 ± 1.26 µM; in test [3] (MDA-MB-231, 48 h), 41.5 ± 1.48 µM; in test [4], over 50 µM. In test [2], the “SI MCF-7 (selectivity index)” value was over 2.79. The “SI MDA-MB-231 (selectivity index)” value in test [3] is over 1.21.
With `COC1=CC2[C@H]3Cc4ccc(OC)c(OC(=O)c5ccccc5C(=O)OCCCCCCOc5no[n+]([O-])c5S(=O)(=O)c5ccccc5)c4[C@@]2(CCN3C)CC1=O` (stereo partly drawn) [7Ec, 4-((6-((2-((((4bs,9R)-3,7-Dimethoxy-11-methyl-6-oxo-6,8a,9,10-tetrahydro-5H-9,4b-(epiminoethano)phenanthren-4-yl)oxy)carbonyl)benzoyl)oxy)hexyl)oxy)-3-(phenylsulfonyl)-1,2,5-oxadiazole 2-oxide], the IC50 in test [1] (Homo sapiens, A549) came to 4.81 ± 0.18 µM; in test [2] (MCF7, 48 h) it was 3.94 ± 0.28 µM; in test [3] (MDA-MB-231, 48 h), 1.81 ± 0.13 µM; in test [4] it was 48.3 ± 3.78 µM. In addition, the “SI MCF-7 (selectivity index)” value in test [2] is 12.26. The “SI MDA-MB-231 (selectivity index)” value in test [3] was 26.70.
Regarding `COc1cccc2c1C(=O)c1c(O)c3c(c(O)c1C2=O)C[C@@](O)(C(=O)CO)C[C@@H]3O[C@H]1C[C@H](N)[C@H](O)[C@H](C)O1` [Adriamycin, adriamycin, reference compound], the half-inhibitory concentration (IC50) in test [2] (MCF7, CCK-8, 48 h, mean ± SD of three experiments) is 5.12 ± 0.31 µM; in test [3] (MDA-MB-231, CCK-8, 48 h, mean ± SD of three experiments), 4.92 ± 0.44 µM.
Consider `N.N.[Cl][Pt][Cl]` [Cisplatin, cisplatin, reference compound], for which, in test [1], the IC50 stood at 4.97 ± 0.37 µM.
